Tests used:
Assay type in all cases: in vivo
[1] = test system: ducksalad (Heteranthera limosa); test: Test B flooded paddy test, plant response rating; conditions: 250 g ai/ha; Flood; scale of 0 to 100 where 0 is no effect and 100 is complete control; 13 to 15 days
Method in brief: (§1)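 Flooded 3 cm over soil; compound into paddy water; depth kept constant. Greenhouse 13–15 d.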

[2] = test system: sedge, umbrella (small-flower umbrella sedge, Cyperus difformis); test: Test B flooded paddy test, plant response rating; conditions: 250 g ai/ha; Flood; scale of 0 to 100 where 0 is no effect and 100 is complete control; 13 to 15 days
Method in brief: as §1

rice (Oryza sativa) = test: Test B flooded paddy test, plant response rating; conditions: 250 g ai/ha; Flood; scale of 0 to 100 where 0 is no effect and 100 is complete control; 13 to 15 days
Method in brief: as §1

[3] = test system: barnyardgrass (Echinochloa crus-galli); test: Test B flooded paddy test, plant response rating; conditions: 250 g ai/ha; Flood; scale of 0 to 100 where 0 is no effect and 100 is complete control; 13 to 15 days
Method in brief: as §1

[4] = test system: ragweed (common ragweed, Ambrosia elatior); test: Test A preemergence, visual injury rating
Method in brief: (§2)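 Compounds in non-phytotoxic solvent with surfactant applied as soil spray preemergence, or postemergence to plants 2-10 cm at one- to two-leaf stage, in loam/sand. After approximately 10 days in greenhouse, injury rated visually versus untreated controls, 0 (no effect) to 100 (complete control).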

kochia (Kochia scoparia) [5] = test: Test A preemergence, visual injury rating
Method in brief: as §2

[6] = test system: Italian ryegrass (Lolium multiflorum); test: Test A preemergence, visual injury rating
Method in brief: as §2

[7] = test system: barnyardgrass (Echinochloa crus-galli); test: Test A preemergence, visual injury rating; conditions: for Plant response rating, Barnyardgrass: 31 g ai/ha, 0 to 100 scale, 0 no effect, 100 complete control; for Barnyardgrass plant response rating: 125 g ai/ha, 0 to 100 scale (0 no effect, 100 complete control)
Method in brief: as §2

[8] = test system: pigweed (Amaranthus retroflexus); test: Test A preemergence, visual injury rating
Method in brief: as §2

[9] = test system: giant foxtail (Setaria faberii); test: Test A preemergence, visual injury rating
Method in brief: as §2

[10] = test system: galium (catchweed bedstraw, Galium aparine); test: Test A postemergence, visual injury rating; conditions: 0 to 100 scale, 0 is no effect, 100 is complete control, approximately 10 days
Method in brief: as §2

[11] = test system: ragweed (common ragweed, Ambrosia elatior); test: Test A postemergence, visual injury rating; conditions: 0 to 100 scale, 0 is no effect, 100 is complete control, approximately 10 days
Method in brief: as §2

[12] = test system: blackgrass (Alopecurus myosuroides); test: Test A postemergence, visual injury rating; conditions: 0 to 100 scale, 0 is no effect, 100 is complete control, approximately 10 days
Method in brief: as §2

corn (Zea mays) = test: Test A postemergence, visual injury rating; conditions: 0 to 100 scale, 0 is no effect, 100 is complete control, approximately 10 days
Method in brief: as §2

[13] = test system: wheat (Triticum aestivum); test: Test A postemergence, visual injury rating; conditions: 0 to 100 scale, 0 is no effect, 100 is complete control, approximately 10 days
Method in brief: as §2

kochia (Kochia scoparia) [14] = test: Test A postemergence, visual injury rating; conditions: 0 to 100 scale, 0 is no effect, 100 is complete control, approximately 10 days
Method in brief: as §2

[15] = test system: Italian ryegrass (Lolium multiflorum); test: Test A postemergence, visual injury rating; conditions: 0 to 100 scale, 0 is no effect, 100 is complete control, approximately 10 days
Method in brief: as §2

[16] = test system: barnyardgrass (Echinochloa crus-galli); test: Test A postemergence, visual injury rating; conditions: 0 to 100 scale, 0 is no effect, 100 is complete control, approximately 10 days
Method in brief: as §2

[17] = test system: pigweed (Amaranthus retroflexus); test: Test A postemergence, visual injury rating; conditions: 0 to 100 scale, 0 is no effect, 100 is complete control, approximately 10 days
Method in brief: as §2

[18] = test system: giant foxtail (Setaria faberii); test: Test A postemergence, visual injury rating; conditions: 0 to 100 scale, 0 is no effect, 100 is complete control, approximately 10 days
Method in brief: as §2

[19] = 31 g ai/ha, 0 to 100 scale, 0 no effect, 100 complete control
[20] = 125 g ai/ha, 0 to 100 scale (0 no effect, 100 complete control)

Row | Structure (SMILES) | Plant response rating, Ducksalad [1] | Plant response rating, Sedge, Umbrella [2] | Plant response rating, Rice (rice (Oryza sativa)) | Plant response rating, Barnyardgrass [3] | Plant response rating, Ragweed [4, 19] | Plant response rating, Kochia (kochia (Kochia scoparia) [5]; [19]) | Plant response rating, Ryegrass, Italian [6, 19] | Plant response rating, Barnyardgrass [7] | Barnyardgrass plant response rating [7] | Plant response rating, Pigweed [8, 19] | Plant response rating, Foxtail, Giant [9, 19] | Galium plant response rating ([10]; 31 g ai/ha) | Galium plant response rating ([10]; 125 g ai/ha) | Ragweed plant response rating ([11]; 31 g ai/ha) | Ragweed plant response rating ([11]; 125 g ai/ha) | Blackgrass plant response rating ([12]; 31 g ai/ha) | Blackgrass plant response rating ([12]; 125 g ai/ha) | Corn plant response rating (corn (Zea mays); 31 g ai/ha) | Corn plant response rating (corn (Zea mays); 125 g ai/ha) | Wheat plant response rating ([13]; 31 g ai/ha) | other results
1 | O=C(OCCC(F)(F)F)c1cc(Br)ccc1Oc1ncc(Cl)cn1 [Compound 94] | 0 | 0 | 0 | 0 | 0 | 0 | 0 | 0 | 0 | 0 | 0 | 0 | 0 | 0 | 0 | 0 | 0 | 0 | 0 | 0 | Ragweed plant response rating [4, 20]: 0; Kochia plant response rating (kochia (Kochia scoparia) [5]; [20]): 0; Ryegrass, Italian plant response rating [6, 20]: 0; Pigweed plant response rating [8, 20]: 0; Foxtail, Giant plant response rating [9, 20]: 0; Wheat plant response rating ([13]; 125 g ai/ha): 0; Kochia plant response rating (kochia (Kochia scoparia) [14]; 31 g ai/ha): 0; Kochia plant response rating (kochia (Kochia scoparia) [14]; 125 g ai/ha): 0; Ryegrass, Italian plant response rating ([15]; 31 g ai/ha): 0; Ryegrass, Italian plant response rating ([15]; 125 g ai/ha): 0; Barnyardgrass plant response rating ([16]; 31 g ai/ha): 0; Barnyardgrass plant response rating ([16]; 125 g ai/ha): 0; Pigweed plant response rating ([17]; 31 g ai/ha): 0; Pigweed plant response rating ([17]; 125 g ai/ha): 0; Foxtail, Giant plant response rating ([18]; 31 g ai/ha): 0; Foxtail, Giant plant response rating ([18]; 125 g ai/ha): 0
2 | CCON=C(C)c1c(Br)cccc1Oc1ncc(Cl)cn1 [Compound 95] | 30 | 0 | 0 | 0 | 0 | 0 | 0 | 10 | 70 | 0 | 0 | 10 | 40 | 0 | 0 | 0 | 10 | 0 | 10 | 0 | Ragweed plant response rating [4, 20]: 0; Kochia plant response rating (kochia (Kochia scoparia) [5]; [20]): 0; Ryegrass, Italian plant response rating [6, 20]: 0; Pigweed plant response rating [8, 20]: 40; Foxtail, Giant plant response rating [9, 20]: 50; Wheat plant response rating ([13]; 125 g ai/ha): 0; Kochia plant response rating (kochia (Kochia scoparia) [14]; 31 g ai/ha): 0; Kochia plant response rating (kochia (Kochia scoparia) [14]; 125 g ai/ha): 0; Ryegrass, Italian plant response rating ([15]; 31 g ai/ha): 0; Ryegrass, Italian plant response rating ([15]; 125 g ai/ha): 0; Barnyardgrass plant response rating ([16]; 31 g ai/ha): 0; Barnyardgrass plant response rating ([16]; 125 g ai/ha): 30; Pigweed plant response rating ([17]; 31 g ai/ha): 10; Pigweed plant response rating ([17]; 125 g ai/ha): 20; Foxtail, Giant plant response rating ([18]; 31 g ai/ha): 0; Foxtail, Giant plant response rating ([18]; 125 g ai/ha): 60
3 | CC(C)(C)CCOC(=O)c1c(Br)cccc1Oc1ncc(Cl)cn1 [Compound 96] | 0 | 0 | 0 | 0 | 0 | 0 | 0 | 0 | 0 | 0 | 0 | 0 | 20 | 0 | 0 | 0 | 10 | 0 | 20 | 0 | Ragweed plant response rating [4, 20]: 0; Kochia plant response rating (kochia (Kochia scoparia) [5]; [20]): 0; Ryegrass, Italian plant response rating [6, 20]: 0; Pigweed plant response rating [8, 20]: 0; Foxtail, Giant plant response rating [9, 20]: 0; Wheat plant response rating ([13]; 125 g ai/ha): 0; Kochia plant response rating (kochia (Kochia scoparia) [14]; 31 g ai/ha): 0; Kochia plant response rating (kochia (Kochia scoparia) [14]; 125 g ai/ha): 0; Ryegrass, Italian plant response rating ([15]; 31 g ai/ha): 0; Ryegrass, Italian plant response rating ([15]; 125 g ai/ha): 0; Barnyardgrass plant response rating ([16]; 31 g ai/ha): 0; Barnyardgrass plant response rating ([16]; 125 g ai/ha): 10; Pigweed plant response rating ([17]; 31 g ai/ha): 0; Pigweed plant response rating ([17]; 125 g ai/ha): 10; Foxtail, Giant plant response rating ([18]; 31 g ai/ha): 0; Foxtail, Giant plant response rating ([18]; 125 g ai/ha): 10
4 | O=C(OCC(Cl)CCl)c1c(Br)cccc1Oc1ncc(Cl)cn1 (centres unmarked) [Compound 97] | 70 | 75 | 0 | 0 | 0 | 0 | 0 | 0 | 10 | 0 | 40 | 100 | 100 | 10 | 20 | 0 | 20 | 10 | 10 | 0 | Plant response rating, Ragweed [4, 20]: 0; Plant response rating, Kochia (kochia (Kochia scoparia) [5]; [20]): 0; Plant response rating, Ryegrass, Italian [6, 20]: 0; Plant response rating, Pigweed [8, 20]: 20; Plant response rating, Foxtail, Giant [9, 20]: 70; Wheat plant response rating ([13]; 125 g ai/ha): 0; Kochia plant response rating (kochia (Kochia scoparia) [14]; 125 g ai/ha): 40; Ryegrass, Italian plant response rating ([15]; 31 g ai/ha): 20; Ryegrass, Italian plant response rating ([15]; 125 g ai/ha): 30; Barnyardgrass plant response rating ([16]; 31 g ai/ha): 10; Barnyardgrass plant response rating ([16]; 125 g ai/ha): 20; Pigweed plant response rating ([17]; 31 g ai/ha): 20; Pigweed plant response rating ([17]; 125 g ai/ha): 50; Foxtail, Giant plant response rating ([18]; 31 g ai/ha): 10; Foxtail, Giant plant response rating ([18]; 125 g ai/ha): 60
5 | CC(=NOCCC(F)(F)F)c1c(Br)cccc1Oc1ncc(Cl)cn1 [Compound 98] | 0 | 0 | 0 | 0 | 0 | 0 | 0 | 0 | 30 | 0 | 0 | 10 | 50 | 0 | 10 | 0 | 10 | 0 | 10 | 0 | Plant response rating, Ragweed [4, 20]: 0; Plant response rating, Kochia (kochia (Kochia scoparia) [5]; [20]): 0; Plant response rating, Ryegrass, Italian [6, 20]: 0; Plant response rating, Pigweed [8, 20]: 0; Plant response rating, Foxtail, Giant [9, 20]: 40; Wheat plant response rating ([13]; 125 g ai/ha): 10; Kochia plant response rating (kochia (Kochia scoparia) [14]; 31 g ai/ha): 0; Kochia plant response rating (kochia (Kochia scoparia) [14]; 125 g ai/ha): 0; Ryegrass, Italian plant response rating ([15]; 31 g ai/ha): 0; Ryegrass, Italian plant response rating ([15]; 125 g ai/ha): 0; Barnyardgrass plant response rating ([16]; 31 g ai/ha): 0; Barnyardgrass plant response rating ([16]; 125 g ai/ha): 10; Pigweed plant response rating ([17]; 31 g ai/ha): 30; Pigweed plant response rating ([17]; 125 g ai/ha): 90; Foxtail, Giant plant response rating ([18]; 31 g ai/ha): 0; Foxtail, Giant plant response rating ([18]; 125 g ai/ha): 20

Source: patent publication US11053204B2, “Pyrimidinyloxy benzene derivatives as herbicides” (FMC Corporation, priority 2015, dated 2021)
